Results published in patent publication US12358966B2, “Inducible caspases and methods for use” (Poseida Therapeutics, Inc., priority 2016, dated 2025).
Like-named read-outs stand apart in the source and are kept apart here.

Assays:
Human pan T-cells = assay: iC9 safety switch test: viability of modified T cells by flow cytometry with 7-AAD after incubation with AP1903; assay type: cell-based; details: 24 hours incubation, 0-1000 nM tested
Description: Human pan T-cells were nucleofected using an Amaxa 4D nucleofector with one of four piggyBac transposons. Modified T cells receiving the “mock” condition were nucleofected with an empty piggyBac transposon. Modified T cells received either a piggyBac […] containing a therapeutic agent alone (a sequence encoding a CARTyrin) or a piggyBac […] containing an integrated iC9 sequence and a therapeutic agent (a sequence encoding a CARTyrin).
To test the iC9 safety switch, each of the four modified T cells were incubated for 24 hours with 0, 0.1 nM, 1 nM, 10 nM, 100 nM or 1000 nM AP1903 (an induction agent for […], also known as Rimiducid). Viability was assessed by flow cytometry using 7-aminoactinomycin D (7-AAD), a fluorescent intercalator, as a marker for cells undergoing apoptosis.
Cell viability was assessed at day 12 (see FIG. 2). […] Moreover, cell viability was assessed at day 19 (see FIG. 3). […]
A quantification of the aggregated results was performed and is provided in FIG. 4, showing the significant impact of the iC9 safety switch on the percent cell viability as a function of the concentration of the induction agent (AP1903, also known as Rimiducid) of the iC9 switch for each modified cell type at either day 12 (FIG. 2 and left graph) or day 19 (FIG. 3 and right graph).

cells [1] = assay: Amount of AP1903 needed in vitro for effective signaling of cells; assay type: cell-based; details: calculated with 1600 Da MW
Method: The fixed dose of AP1903 (Rimiducid) for injection used, for example, may be 0.4 mg/kg intravenously infused over 2 hours. The amount of AP1903 (Rimiducid) needed in vitro for effective signaling of cells is 10-100 nM (1600 Da MW). This equates to 16-160 μg/L or […]. Doses up to 1 mg/kg were well-tolerated in the Phase I study of AP1903 (Rimiducid) described above. Therefore, 0.4 mg/kg may be a safe and effective dose of AP1903 (Rimiducid) for this Phase I study in combination with the therapeutic cells.

[2] = cited from earlier work
cells [3] = details: cited from earlier work
[4] = tested on: cells comprising P-BCMA-101; assay: In vivo killing of cells comprising P-BCMA-101 via iC9 safety switch in NSG mice (huCD45+ cells in blood, spleen, bone marrow); details: AP1903 0.005-5 mg/kg on day 12, analysis 24 hours later
Method: FIG. 5 is a diagram showing a study timeline and outline for an in vivo study. NSG mice were IV injected with MM.1S/luciferase^+ cells, staged at day 8, injected with T cells on day 9, and treated with AP1903 (Rimiducid) on day 12 at the indicated doses. 24 hours later, mice were euthanized and blood, spleen, and bone marrow cells were collected and stained for the presence of huCD45^+ cells.
Blood, spleen, and bone marrow cells were analyzed by flow cytometry for the presence of huCD45^+ cells. The relative viability was determined by: ((#of huCD45 cells/ #of msCD45 cells)/(Average of huCD45/msCD45 in no treatment group))*100% per 1,500 bead events for each sample. Each data point represents a different mouse. On the x-axis is plotted percent Relative CAR-T Viability from 0 to 175 in increments of 25. […]
NSG mice were IV injected with MM.1S/luciferase^+ cells, staged at day 8, injected with T cells on day 9, and treated with AP1903 (Rimiducid) on day 12 at the indicated doses. […] Blood, spleen, and bone marrow cells were analyzed by flow cytometry for the presence of huCD45^+ cells. The relative viability was determined by dividing the number of huCD45 cells by the number of msCD45 cells and normalizing to the average of huCD45/msCD45 in the no treatment group times, 100% per 1,500 bead events for each sample. […]

CC[C@H](C(=O)N1CCCC[C@H]1C(=O)O[C@H](CCc1ccc(OC)c(OC)c1)c1cccc(OCC(=O)NCCNC(=O)COc2cccc([C@@H](CCc3ccc(OC)c(OC)c3)OC(=O)[C@@H]3CCCCN3C(=O)[C@@H](CC)c3cc(OC)c(OC)c(OC)c3)c2)c1)c1cc(OC)c(OC)c(OC)c1 (relative stereo) [AP1903, 2-Piperidinecarboxylic acid, 1-[(2S)-1-oxo-2-(3,4,5-trimethoxyphenyl)butyl]-, 1,2-ethanediylbis[imino (2-oxo-2,1-ethanediyl)oxy-3,1-phenylene[(1R)-3-(3,4-dimethoxyphenyl)propylidene]]ester, [2S-[1(R*),2R*[S*[S*[1(R*),2R*]]]]]-(9C1)]
lowest concentration of the study at which apoptosis is induced (Human pan T-cells): 0.1 nM | amount needed for effective signaling, converted to dose (cells [1]): 0.016 to 1.6 µg/kg | amount needed for effective signaling, converted to mass concentration (cells [1]): 16 to 160 µg/L | plasma levels versus dose ([2]; 0.01, 0.05, 0.1, 0.5 and 1.0 mg/kg): directly proportional to dose | plasma level as % of maximal concentration ([2]; 0.5 hours post-dose): approximately 18% | plasma level as % of maximal concentration ([2]; 2 hours post-dose): ~7% | plasma level as % of maximal concentration ([2]; 10 hours post-dose): ~1% | well-tolerated dose ([2]; Phase I study): up to 1 mg/kg | safety and tolerability ([2]; all dose levels 0.01-1.0 mg/kg, single dose IV over 2 hours): safe and well tolerated at all dose levels | pharmacokinetic profile ([2]; healthy volunteers): favorable pharmacokinetic profile | mean Cmax ([2]; over the 0.01-1.0 mg/kg dose range, IV infusion over 2 hours, 24 healthy volunteers): 10 to 1275 ng/mL | amount needed in vitro for effective signaling of cells (cells [3]): 10 to 100 nM | killing of cells comprising P-BCMA-101 in vivo [4]: highly efficient killing
